# Source: ChEMBL document CHEMBL1944599, “From libraries to candidate: the discovery of new ultra long-acting dibasic β₂-adrenoceptor agonists” (Bioorg Med Chem Lett, 2012)
# Key:
# [1] = molecular target: T1, Beta-2 adrenergic receptor (Homo sapiens, UniProt P07550); test: Agonist activity at human beta2 adrenoceptor expressed in H292 cells assessed as increase in cAMP accumulation after 60 mins by spectrophotometry; format: functional, cell-based
# [2] = molecular target: T2, Alpha-1D adrenergic receptor (Homo sapiens, UniProt P25100); test: Displacement of radiolabeled Prazosin from alpha1D adrenoceptor
# T2 sequence (P25100 whole entry): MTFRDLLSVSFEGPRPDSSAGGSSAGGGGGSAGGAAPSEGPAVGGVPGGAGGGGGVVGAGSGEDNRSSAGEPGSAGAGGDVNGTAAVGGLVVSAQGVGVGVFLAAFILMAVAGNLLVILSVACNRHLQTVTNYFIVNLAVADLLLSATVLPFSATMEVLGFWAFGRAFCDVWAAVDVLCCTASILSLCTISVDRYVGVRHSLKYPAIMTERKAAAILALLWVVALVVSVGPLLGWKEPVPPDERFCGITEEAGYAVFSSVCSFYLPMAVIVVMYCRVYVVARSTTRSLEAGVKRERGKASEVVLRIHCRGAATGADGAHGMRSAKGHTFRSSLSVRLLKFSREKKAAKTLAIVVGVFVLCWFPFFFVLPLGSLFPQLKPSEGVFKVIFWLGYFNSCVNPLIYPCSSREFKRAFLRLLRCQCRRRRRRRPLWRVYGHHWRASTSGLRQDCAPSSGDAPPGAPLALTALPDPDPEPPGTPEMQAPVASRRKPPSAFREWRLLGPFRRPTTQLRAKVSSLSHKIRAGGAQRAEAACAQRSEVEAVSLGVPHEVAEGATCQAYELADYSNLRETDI
# physchem = conditions: 1-octanol/aqueous buffer, pH 7.4
# D(2) dopamine receptor = D(2) dopamine receptor (Homo sapiens, UniProt P14416); test: Displacement of radiolabeled spiperone from dopamine D2 receptor
# Chain of D(2) dopamine receptor (P14416 whole entry): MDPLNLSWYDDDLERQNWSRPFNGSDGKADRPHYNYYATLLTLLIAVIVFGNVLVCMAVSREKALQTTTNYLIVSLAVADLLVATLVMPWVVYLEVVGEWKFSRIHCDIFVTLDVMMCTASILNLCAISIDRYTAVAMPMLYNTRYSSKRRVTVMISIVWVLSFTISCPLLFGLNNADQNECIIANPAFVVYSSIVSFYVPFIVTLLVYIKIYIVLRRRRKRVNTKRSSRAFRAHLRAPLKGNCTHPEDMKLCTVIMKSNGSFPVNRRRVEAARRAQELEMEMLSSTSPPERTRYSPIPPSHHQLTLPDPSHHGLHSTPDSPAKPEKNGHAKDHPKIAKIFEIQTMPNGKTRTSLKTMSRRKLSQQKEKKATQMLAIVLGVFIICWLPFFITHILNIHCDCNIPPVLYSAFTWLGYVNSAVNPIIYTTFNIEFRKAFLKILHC
# [3] = molecular target: T1, Beta-2 adrenergic receptor; test: Displacement of radiolabeled iodocyanopindolol from recombinant beta2 adrenoceptor
# [4] = molecular target: Beta-1 adrenergic receptor (Homo sapiens, UniProt P08588); test: Displacement of radiolabeled iodocyanopindolol from beta1 adrenoceptor
# Chain of Beta-1 adrenergic receptor (P08588 whole entry): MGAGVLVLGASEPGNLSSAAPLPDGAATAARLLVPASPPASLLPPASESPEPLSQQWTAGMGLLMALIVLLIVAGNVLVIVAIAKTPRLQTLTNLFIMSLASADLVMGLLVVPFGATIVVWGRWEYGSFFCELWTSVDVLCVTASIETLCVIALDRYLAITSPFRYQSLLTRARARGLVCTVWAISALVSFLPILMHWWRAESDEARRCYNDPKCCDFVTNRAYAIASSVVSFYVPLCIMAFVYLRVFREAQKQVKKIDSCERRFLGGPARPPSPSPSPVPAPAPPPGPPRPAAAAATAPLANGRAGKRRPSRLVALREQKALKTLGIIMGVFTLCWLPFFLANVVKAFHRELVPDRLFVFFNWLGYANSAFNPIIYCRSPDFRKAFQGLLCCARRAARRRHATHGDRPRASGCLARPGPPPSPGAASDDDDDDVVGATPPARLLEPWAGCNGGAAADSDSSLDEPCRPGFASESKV
# [5] = molecular target: Beta-2 adrenergic receptor (Cavia porcellus, UniProt Q8K4Z4); test: Agonist activity at beta2 adrenoceptor in guinea pig trachea assessed as reduction in methacholine-induced contraction; format: functional, tissue-based
# Chain of Beta-2 adrenergic receptor (Cavia porcellus, UniProt Q8K4Z4) (Q8K4Z4 whole entry): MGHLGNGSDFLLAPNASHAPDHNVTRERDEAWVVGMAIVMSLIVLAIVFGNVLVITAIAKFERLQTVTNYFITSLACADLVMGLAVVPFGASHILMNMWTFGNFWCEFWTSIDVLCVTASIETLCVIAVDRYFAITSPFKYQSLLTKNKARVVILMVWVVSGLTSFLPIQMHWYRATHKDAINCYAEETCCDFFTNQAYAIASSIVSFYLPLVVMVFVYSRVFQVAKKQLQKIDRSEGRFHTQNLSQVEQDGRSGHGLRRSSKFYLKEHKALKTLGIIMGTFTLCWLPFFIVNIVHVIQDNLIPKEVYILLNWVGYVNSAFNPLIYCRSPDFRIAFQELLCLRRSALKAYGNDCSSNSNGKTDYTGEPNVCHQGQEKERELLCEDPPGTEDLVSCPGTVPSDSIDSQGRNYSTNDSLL
# in vivo = conditions: rat, iv
# Description: Terminal half life in iv dosed rat
# [6] = molecular target: Beta-2 adrenergic receptor (Cavia porcellus) (UniProt Q8K4Z4); test: Agonist activity at beta2 adrenoceptor in guinea pig trachea assessed as reduction in methacholine-induced contraction relative to untreated control; format: functional, tissue-based
# Chain of Beta-2 adrenergic receptor (Cavia porcellus) (Q8K4Z4 whole entry, looked up): as the sequence (Q8K4Z4 whole entry) above
# [7] = Clearance in iv dosed rat; conditions: in vivo
# [8] = Apparent volume of distribution during terminal phase in iv dosed rat; format: ADME, organism-based; conditions: in vivo, read-out: Vz
# T1 sequence (P07550 whole entry): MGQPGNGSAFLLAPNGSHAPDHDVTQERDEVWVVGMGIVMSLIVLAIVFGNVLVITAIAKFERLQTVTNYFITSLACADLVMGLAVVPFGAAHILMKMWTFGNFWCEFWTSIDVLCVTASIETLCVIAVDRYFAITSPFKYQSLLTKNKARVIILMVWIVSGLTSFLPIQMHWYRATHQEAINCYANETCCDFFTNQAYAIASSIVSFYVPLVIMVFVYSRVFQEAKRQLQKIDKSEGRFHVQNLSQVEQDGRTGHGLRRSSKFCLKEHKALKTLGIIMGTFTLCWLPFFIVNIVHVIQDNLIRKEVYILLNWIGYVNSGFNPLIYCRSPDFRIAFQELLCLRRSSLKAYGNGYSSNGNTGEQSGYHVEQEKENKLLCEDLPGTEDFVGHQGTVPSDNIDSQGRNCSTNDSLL
SMILES,EC50 [1],IC50 [2],logD (physchem),IC50 (D(2) dopamine receptor),IC50 [3],IC50 [4],EC50 [5],half-life (in vivo),Intrinsic activity [6],clearance [7],Vd [8]
O=c1[nH]c2c(O)ccc([C@@H](O)CNCCc3cccc(CNCc4ccccc4Cl)c3)c2s1,,158 nM,1.9,251 nM,,10 nM,,,,,
O=c1[nH]c2c(O)ccc(CCNCCc3ccc(CN4CC[C@@H](Oc5ccc(Cl)cc5)C4)cc3)c2s1,158 nM,,,,126 nM,,,,,,
COc1ccccc1CCNCc1ccc(CCNCCc2ccc(O)c3[nH]c(=O)sc23)cc1,,,,,200 nM,,,,,,
O=c1[nH]c2c(O)ccc([C@@H](O)CNCCc3ccc(-c4cccc(CN5Cc6ccccc6C5)c4)cc3)c2s1,10 nM,,,,63.1 nM,,,,,,
COc1ccccc1CNCCc1cccc(CCNC[C@H](O)c2ccc(O)c3[nH]c(=O)sc23)c1,,25.1 nM,0.9,1000 nM,,63.1 nM,,,,,
O=c1[nH]c2c(O)ccc([C@@H](O)CNCCc3cccc(CNCc4ccccn4)c3)c2s1,,316 nM,,5010 nM,,79.4 nM,,,,,
COCCNCc1ccc(CCNC[C@H](O)c2ccc(O)c3[nH]c(=O)sc23)cc1,15.8 nM,631 nM,-0.5,> 10000 nM,316 nM,794 nM,,,,,
O=c1ccc2c([C@@H](O)CNCCc3cccc(CNCCc4ccccn4)c3)ccc(O)c2[nH]1,2.51 nM,398 nM,,> 10000 nM,63.1 nM,3160 nM,,,,,
CCN(Cc1ccncc1)Cc1cccc(-c2ccc(CCNCCc3ccc(O)c4[nH]c(=O)sc34)cc2)c1,316 nM,,,,794 nM,,,,,,
O=c1[nH]c2c(O)ccc(CCNCCc3ccc(CNCCc4ccccc4F)cc3)c2s1,79.4 nM,,,,1260 nM,,,,,,
CC(Cc1cccc(CNCCc2c(Cl)cccc2Cl)c1)NC[C@H](O)c1ccc(O)c2[nH]c(=O)sc12 (some centres not stated),,39.8 nM,2.4,126 nM,,20 nM,,,,,
O=c1[nH]c2c(O)ccc(CCNCCc3ccc(CNCCc4c(Cl)cccc4Cl)cc3)c2s1,100 nM,,,,501 nM,,,,,,
O=c1[nH]c2c(O)ccc([C@@H](O)CNCCc3ccc(CN4CCCC4)cc3)c2s1,39.8 nM,,,,,,,,,,
COc1ccccc1CNCc1ccc(CCNC[C@@H](O)c2ccc(O)c3[nH]c(=O)sc23)cc1,7.94 nM,79.4 nM,,2000 nM,251 nM,1260 nM,,,,,
O=c1[nH]c2c(O)ccc(CCNCCc3ccc(CNCCc4ccccn4)cc3)c2s1,158 nM,,,,100 nM,,,,,,
COc1ccccc1CNCc1ccc(CCNC[C@H](O)c2ccc(O)c3[nH]c(=O)sc23)cc1,3.16 nM,100 nM,0.2,2510 nM,126 nM,1260 nM,,,,,
OCc1cc([C@@H](O)CNCCc2ccc(CNCCc3ccccc3)cc2)ccc1O,31.6 nM,501 nM,,> 7940 nM,631 nM,> 3160 nM,,,,,
O=c1[nH]c2c(O)ccc(CCNCCc3cccc(CN4CCC(c5ccccc5)CC4)c3)c2s1,,,,,31.6 nM,,,,,,
O=c1[nH]c2c(O)ccc([C@@H](O)CNCCc3ccc(CNCCc4ccccn4)cc3)c2s1,,25.1 nM,-0.3,2510 nM,,> 794 nM,,,,,

# More lines, in order of falling IC50 [3], values ahead:
EC50 [1],IC50 [2],logD (physchem),IC50 (D(2) dopamine receptor),IC50 [3],IC50 [4],EC50 [5],half-life (in vivo),Intrinsic activity [6],clearance [7],Vd [8],SMILES
,,0.8,,31.6 nM,,0.501 nM,14 h,0.9,23 mL/min/kg,29 L/kg,O=c1[nH]c2c(O)ccc(CCNCCc3cccc(-c4cccc(CNCc5ccccc5)c4)c3)c2s1
3.16 nM,31.6 nM,,1260 nM,25.1 nM,100 nM,,,,,,CCOc1ccccc1CNCc1cccc(CCNC[C@H](O)c2ccc(O)c3[nH]c(=O)sc23)c1
3.16 nM,251 nM,1.5,1000 nM,25.1 nM,200 nM,,,,,,COc1ccccc1CN(C)Cc1cccc(CCNC[C@H](O)c2ccc(O)c3[nH]c(=O)sc23)c1
,,,,15.8 nM,,,,,,,O=c1[nH]c2c(O)ccc(CCNCCc3ccc(-c4cccc(CN5Cc6ccccc6C5)c4)cc3)c2s1
1.58 nM,200 nM,1.6,794 nM,12.6 nM,2 nM,,,,,,O=c1[nH]c2c(O)ccc([C@@H](O)CNCCc3ccccc3CNCCc3ccccc3F)c2s1
3.98 nM,,,,12.6 nM,,,,,,,O=c1[nH]c2c(O)ccc(CCNCCc3cccc(CN[C@H]4C[C@@H]4c4ccccc4)c3)c2s1
2.51 nM,25.1 nM,1.9,398 nM,7.94 nM,200 nM,,,,,,O=c1[nH]c2c(O)ccc([C@@H](O)CNCCOc3cccc(CNCCc4ccccc4F)c3)c2s1
1 nM,100 nM,0.9,794 nM,6.31 nM,63.1 nM,,,,,,COc1cccc(CNCc2cccc(CCNC[C@H](O)c3ccc(O)c4[nH]c(=O)sc34)c2)c1
1.26 nM,39.8 nM,,79.4 nM,6.31 nM,7.94 nM,,,,,,O=c1[nH]c2c(O)ccc([C@@H](O)CNCCCc3cccc(CNCCc4c(Cl)cccc4Cl)c3)c2s1
0.794 nM,158 nM,0.9,794 nM,5.01 nM,10 nM,,,,,,COc1ccc(CNCc2cccc(CCNC[C@H](O)c3ccc(O)c4[nH]c(=O)sc34)c2)cc1
1 nM,,,,3.98 nM,,,,,,,O=c1[nH]c2c(O)ccc([C@@H](O)CNCCc3cccc(CN4CCC(c5ccccc5)CC4)c3)c2s1
0.501 nM,200 nM,,1580 nM,2.51 nM,158 nM,0.316 nM,,0.9,,41 L/kg,O=c1[nH]c2c(O)ccc([C@@H](O)CNCCc3cccc(CNCCc4ccccn4)c3)c2s1
3.98 nM,,,,2 nM,,,,,,,C[C@@H](NCc1ccccc1-c1ccc(CCNC[C@H](O)c2ccc(O)c3[nH]c(=O)sc23)cc1)c1ccccc1
0.316 nM,7.94 nM,,631 nM,2 nM,316 nM,,,,,,COc1ccccc1CCNCc1ccc(CCNC[C@H](O)c2ccc(O)c3[nH]c(=O)sc23)cc1
0.251 nM,100 nM,,> 794 nM,2 nM,316 nM,0.2 nM,18 h,0.8,18 mL/min/kg,29 L/kg,Cc1cccc2c(CCNCc3ccc(CCNC[C@H](O)c4ccc(O)c5[nH]c(=O)sc45)cc3)c[nH]c12
0.251 nM,12.6 nM,1.1,2000 nM,2 nM,398 nM,,,,,,O=c1[nH]c2c(O)ccc([C@@H](O)CNCCc3ccc(CNCCc4ccccc4)cc3)c2s1
0.398 nM,50.1 nM,1.3,2000 nM,2 nM,398 nM,,,,,,O=c1[nH]c2c(O)ccc([C@@H](O)CNCCc3ccc(CNCCc4ccccc4F)cc3)c2s1
0.631 nM,79.4 nM,0.7,631 nM,1 nM,6.31 nM,,,,,,O=c1[nH]c2c(O)ccc([C@@H](O)CNCCc3cccc(CNCc4ccccc4F)c3)c2s1
0.501 nM,158 nM,1.1,316 nM,0.794 nM,20 nM,,,,,,O=c1[nH]c2c(O)ccc([C@@H](O)CNCCc3cccc(CNCCCc4ccccc4)c3)c2s1
0.316 nM,79.4 nM,0.8,> 794 nM,0.794 nM,251 nM,,,,,,COc1ccccc1CCNCc1cccc(CCNC[C@H](O)c2ccc(O)c3[nH]c(=O)sc23)c1
,,,,0.631 nM,,,,,,,O=c1[nH]c2c(O)ccc(CCNCCc3cccc(CNCCc4c(Cl)cccc4Cl)c3)c2s1
0.316 nM,398 nM,1.1,398 nM,0.631 nM,79.4 nM,,,,,,Cc1cccc2c(CCNCc3cccc(CCNC[C@H](O)c4ccc(O)c5[nH]c(=O)sc45)c3)c[nH]c12
0.251 nM,50.1 nM,1.6,631 nM,0.631 nM,158 nM,,,,,,O=c1[nH]c2c(O)ccc([C@@H](O)CNCCc3cccc(CNCCc4ccccc4Cl)c3)c2s1
1 nM,251 nM,,> 2510 nM,0.501 nM,63.1 nM,,,,,,O=c1[nH]c2c(O)ccc([C@@H](O)CNCCc3cccc(CNCCCc4ccccn4)c3)c2s1
0.398 nM,31.6 nM,1.2,2510 nM,0.2 nM,501 nM,,,,,,CC(CNCc1ccc(CCNC[C@H](O)c2ccc(O)c3[nH]c(=O)sc23)cc1)c1ccccc1 (some centres not stated)
